According to the RepoRT retention time repository:

Assay: Waters ACQUITY UPLC BEH C18, 100 × 2.1 mm, 1.7 µm, 40 °C, 0.3 to 0.4 mL/min, estimated dead time 0.63 min; A: water + 0.1% formic acid; B: methanol + 0.1% formic acid; gradient (min/%B) 0/0.5 0.1/0.5 10/80 10.1/99.5 12/99.5
Conditions: stereoisomer not certain

Row | LC retention time | SMILES
1 | 7.47 min | O=C1CC(c2ccccc2)Oc2cc(O)cc(O)c21 (stereo not given)
2 | 8.63 min | C=CCc1ccc(O)c(-c2ccc(O)c(CC=C)c2)c1
3 | 3.87 min | O=c1cc2oc(-c3ccc(O)cc3)ccc-2c(O)c1
4 | 3.34 min | O=c1c(OC2OC(CO)C(O)C(O)C2O)c(-c2cc(O)c(O)c(OC3OC(CO)C(O)C(O)C3O)c2)oc2cc(O)cc(O)c12 (stereo not given)
5 | 3.14 min | O=C(CCc1ccc(O)c(O)c1)NCCCCNCCCNC(=O)CCc1ccc(O)c(O)c1
6 | 6.4 min | O=c1cc(-c2ccccc2)oc2cc(O)c(O)c(O)c12
7 | 2.39 min | CC(CSCC(NC(=O)CCC(N)C(=O)O)C(=O)O)C(=O)O (stereo not given)
8 | 4 min | CC1OC(OCC2OC(Oc3c(-c4ccc(O)cc4)oc4cc(O)cc(O)c4c3=O)C(O)C(O)C2O)C(O)C(O)C1O (stereo not given)
9 | 3.01 min | Oc1cc(O)c2cc(OC3OCC(O)C(O)C3O)c(-c3ccc(O)c(O)c3)[o+]c2c1 (stereo not given)
10 | 2.75 min | CC1OC(OCC2OC(Oc3cc4c(O)cc(O)cc4[o+]c3-c3ccc(O)c(O)c3)C(OC3OC(CO)C(O)C(O)C3O)C(O)C2O)C(O)C(O)C1O (stereo not given)
11 | 8.16 min | CC(=O)OC1CCC2(C)C(=CCC3C2CCC2(C)C3CC3OC4(CCC(C)CN4)C(C)C32)C1 (stereo not given)
12 | 4.19 min | COc1ccc2cc1Oc1ccc(cc1)CC1c3cc(c(OC)cc3CCN1C)Oc1c(OC)c(OC)cc3c1C(C2)N(C)CC3 (stereo not given)
13 | 3.62 min | CC1OC(Oc2cc(O)c3c(=O)c(OC4OC(COC5OC(CO)C(O)C(O)C5O)C(O)C(O)C4O)c(-c4ccc(O)cc4)oc3c2)C(O)C(O)C1O (stereo not given)
14 | 3.03 min | CS(=O)CCCCCCCCC#N (stereo not given)
15 | 7.79 min | CC1=C(O)C(=O)CC(OC2CC(C)(C)CC3C4=CCC5C6(C)CCC(OC7OC(C(=O)O)C(O)C(O)C7OC7OCC(O)C(O)C7OC7OC(C)C(O)C(O)C7O)C(C)(CO)C6CCC5(C)C4(C)CCC23C)O1 (stereo not given)
16 | 5.61 min | CC1CCC2(OC1O)OC1CC3C4CC=C5CC(OC6OC(CO)C(OC7OC(C)C(O)C(O)C7O)C(O)C6OC6OC(C)C(O)C(O)C6O)CCC5(C)C4CC(O)C3(C)C1C2C (stereo not given)
17 | 3.88 min | O=C(O)CC(=O)OCC1OC(Oc2c(-c3cc(O)c(O)cc3O)oc3cc(O)cc(O)c3c2=O)C(O)C(O)C1O (stereo not given)
18 | 7.45 min | CC1(C)CCC2(C(=O)O)CCC3(C)C(=CCC4C5(C)CC(O)C(O)C(C)(C(=O)OC6OC(COC(=O)CC(=O)O)C(O)C(O)C6O)C5CCC43C)C2C1 (stereo not given)
19 | 7.38 min | O=c1cc(-c2ccc(O)cc2)oc2cc(O)ccc12
20 | 5.92 min | COc1ccc2c(c1)OC1c3ccc(O)cc3OCC21 (stereo not given)
21 | 2.59 min | COc1ccc2c(c1)OC(O)C(=O)N2O (stereo not given)
22 | 2.28 min | CS(=O)CCCCCCCC(N)C(=O)O (stereo not given)
23 | 8.76 min | CC(C)=CCc1c(O)cc(O)c2c1OC(c1ccc(O)cc1)CC2=O (stereo not given)

Row | LC retention time | SMILES
24 | 9.51 min | CC(C)=CCCC(C)(OC1OC(CO)C(O)C(O)C1O)C1CCC2(C)C1C(O)CC1C3(C)CCC(O)C(C)(C)C3CCC12C (stereo not given)
25 | 6.26 min | COc1cc(C=CC(=O)O)cc(OC)c1
26 | 4.22 min | O=C(O)CC(=O)OCC1OC(Oc2c(-c3ccc(O)c(O)c3)oc3cc(O)cc(O)c3c2=O)C(O)C(O)C1O (stereo not given)
27 | 9.37 min | CCC=CCC1C(=O)C=CC1CCCCCCCC(=O)O (stereo not given)
28 | 7.66 min | CC(C)=CCCC(C)(OC1OC(CO)C(O)C(O)C1O)C1CCC2(C)C1C(O)CC1C3(C)CCC(OC4OC(CO)C(O)C(O)C4O)C(C)(C)C3CCC12C (stereo not given)
29 | 4.04 min | CC1OC(OC2C(Oc3cc(O)c4c(c3)OC(c3ccc(O)c(O)c3)CC4=O)OC(CO)C(O)C2O)C(O)C(O)C1O (stereo not given)
30 | 3.22 min | Nc1ccc(C(=O)NC(CCC(=O)O)C(=O)O)cc1 (stereo not given)
31 | 2.35 min | O=C(C=Cc1ccc(O)cc1)Oc1cc(O)c2c(=O)c(OC3OC(CO)C(O)C(O)C3O)c(-c3ccc(O)cc3)oc2c1 (stereo not given)
32 | 7.57 min | CC(C)=CCc1c(O)c(-c2cc(-c3cc(=O)c4c(O)cc(O)cc4o3)ccc2O)c2oc(-c3ccc(O)cc3)cc(=O)c2c1O
33 | 7.57 min | CC1OC(OC2C(OC3C(OC4CCC5(C)C(CCC6(C)C5C=CC5=C7CC(C)(C)CC(O)C7(C)CCC56C)C4(C)CO)OC(C(=O)O)C(O)C3O)OC(C(=O)O)C(O)C2O)C(O)C(O)C1O (stereo not given)
34 | 7.55 min | CC1(C)CCC2(C(=O)O)CCC3(C)C(=CCC4C5(C)CCC(OC6OC(C(=O)O)C(O)C(OC7OC(CO)C(O)C(O)C7O)C6O)C(C)(CO)C5CCC43C)C2C1 (stereo not given)
35 | 3.47 min | O=C1CC(c2ccc(O)c(O)c2)Oc2c1ccc(OC1OC(CO)C(O)C(O)C1O)c2O (stereo not given)
36 | 9.79 min | CCCCCC=CC=CC(O)CCCCCCCC(=O)O (stereo not given)
37 | 7.24 min | CC(C)=CCc1cc(-c2coc3cc(O)ccc3c2=O)ccc1O
38 | 7.84 min | O=C(C=CC=Cc1ccc2c(c1)OCO2)N1CCCCC1
39 | 4.32 min | CC1CCC2(NC1)OC1CC3C4CCC5CC(OC6OC(CO)C(OC7OC(CO)C(O)C(OC8OC(O)C(O)C(O)C8O)C7OCC(O)C(O)C(O)C(O)CO)C(O)C6O)CCC5(C)C4CCC3(C)C1C2C (stereo not given)
40 | 4.34 min | CC(CCC1(O)OC2CC3C4CC=C5CC(O)CC(OC6OC(CO)C(O)C(O)C6O)C5(C)C4CCC3(C)C2C1C)COC1OC(CO)C(O)C(O)C1OC1OC(C)C(O)C(O)C1O (stereo not given)
41 | 2.61 min | OCC1OC(Oc2cc3c(O)cc(O)cc3[o+]c2-c2cc(O)c(O)c(O)c2)C(O)C(O)C1O (stereo not given)
42 | 9.06 min | COc1cc(O)c(CC=C(C)C)c(O)c1C(=O)C=Cc1ccc(O)cc1
43 | 6.12 min | CC1OC(OC2C(O)COC(OC3C(C)OC(OC4C(OC(=O)C56CCC(C)(C)CC5C5=CCC7C8(C)CCC(OC9OC(CO)C(O)C(O)C9O)C(C)(C)C8CCC7(C)C5(C)CC6O)OCC(O)C4O)C(O)C3O)C2O)C(O)C(O)C1O (stereo not given)
44 | 4.28 min | CC1OC(OCC2OC(Oc3cc(O)c4c(c3)OC(c3ccc(O)cc3)CC4=O)C(O)C(O)C2O)C(O)C(O)C1O (stereo not given)
45 | 1.69 min | OCC1OC(OCC2OC(OCC3OC(OC4(CO)OC(CO)C(O)C4O)C(O)C(O)C3O)C(O)C(O)C2O)C(O)C(O)C1O (stereo not given)
46 | 3.35 min | O=c1cc(-c2ccc(O)c(O)c2)oc2c(C3OCC(O)C(O)C3O)c(O)c(C3OC(CO)C(O)C(O)C3O)c(O)c12 (stereo not given)

Row | LC retention time | SMILES
47 | 4.47 min | COc1ccc(-c2cc(=O)c3c(O)cc(OC4OC(CO)C(O)C(O)C4OC4OC(C)C(O)C(O)C4O)cc3o2)cc1O (stereo not given)
48 | 2.21 min | CS(=O)CCCCC#N (stereo not given)
49 | 4.54 min | O=C(C=Cc1ccc(O)c(O)c1)OC1CC2(O)CC(OC2=O)C1OC(=O)C=Cc1ccc(O)c(O)c1 (stereo not given)
50 | 6.29 min | CC1OC(OC2C(COC3OC(CO)C(O)C(O)C3O)OC(OC3CCC4(C)C(CCC5(C)C4C=CC4=C6CC(C)(C)CCC6(CO)C(O)CC45C)C3(C)C)C(O)C2O)C(O)C(O)C1O (stereo not given)
51 | 5.5 min | CC1(C)CC2C3=CCC4C5(C)CCC(OC6OC(C(=O)O)C(O)C(O)C6OC6OC(CO)C(O)C(O)C6OC6OC(CO)C(O)C(O)C6O)C(C)(CO)C5CCC4(C)C3(C)CCC2(C)CC1OC1OCC(O)C(O)C1O (stereo not given)
52 | 1.52 min | NC(CCC(=O)NC(CS)C(=O)NCC(=O)O)C(=O)O (stereo not given)
53 | 6.58 min | CC(CCC1(O)OC2CC3C4CC=C5CC(O)CCC5(C)C4CCC3(C)C2C1C)COC1OC(CO)C(O)C(O)C1O (stereo not given)
54 | 5.81 min | Oc1ccc(C=Cc2cc(O)cc3c2C(c2cc(O)cc(O)c2)C(c2ccc(O)cc2)O3)cc1 (stereo not given)
55 | 3.59 min | O=c1cc(-c2ccc(O)c(O)c2)oc2cc(O)c(C3OC(CO)C(O)C(O)C3O)c(O)c12 (stereo not given)
56 | 4.5 min | CC1OC(OC2C(CO)OC(OC3CCC4(C)C(=CC(O)C5C4CCC4(C)C5CC5OC6(CCC(C)(COC7OC(CO)C(O)C(O)C7O)O6)C(C)C54)C3)C(OC3OC(C)C(O)C(O)C3O)C2O)C(O)C(O)C1O (stereo not given)
57 | 4.64 min | CC(CCC1(O)OC2CC3C4CCC5CC(OC6OC(CO)C(O)C(O)C6OC6OC(CO)C(O)C(O)C6O)C(O)CC5(C)C4CCC3(C)C2C1C)COC1OC(CO)C(O)C(O)C1O (stereo not given)
58 | 3.49 min | O=C(C=Cc1ccc(O)c(O)c1)OC1CC(OC(=O)C=Cc2ccc(O)c(O)c2)(C(=O)O)CC(O)C1O (stereo not given)
59 | 5.53 min | O=C1NCCc2c1[nH]c1ccccc21
60 | 1.61 min | O=C(O)C=C(CC(=O)O)C(=O)O
61 | 5.81 min | CC1(C)CC2C3=CCC4C5(C)CCC(OC6OC(C(=O)O)C(O)C(O)C6OC6OC(CO)C(O)C(O)C6OC6OC(CO)C(O)C(O)C6O)C(C)(CO)C5CCC4(C)C3(C)CCC2(C)C(O)C1O (stereo not given)
62 | 4.21 min | COc1cc(-c2cc(=O)c3c(O)c(C4OC(CO)C(O)C(O)C4O)c(OC)cc3o2)ccc1O (stereo not given)
63 | 2.98 min | C=CCSCC(NC(=O)CCC(N)C(=O)O)C(=O)O (stereo not given)
64 | 8.75 min | COc1ccc2ccc(=O)oc2c1CC=C(C)C
65 | 4.8 min | O=C1c2c(O)cc(O)cc2OC(c2ccc(O)cc2)C1O (stereo not given)
66 | 3.81 min | CC(CCC1C(CO)=CC(=O)CC1(C)C)OC1OC(CO)C(O)C(O)C1O (stereo not given)
67 | 5.95 min | O=C1CC(c2ccc(O)cc2)Oc2cc(O)cc(O)c21 (stereo not given)

Row | SMILES | LC retention time
68 | CCC1=CC2CN3CCc4c([nH]c5ccccc45)C(C(=O)OC)(C2)C13 (stereo not given) | 5.04 min
69 | O=C1CC2OCC=C3CN4CCC56c7ccccc7N1C5C2C3CC46 (stereo not given) | 3.46 min
70 | CCN1CC2(COC)CCC(O)C34C5CC6C(OC)CC(O)(C(CC23)C14)C5C6O (stereo not given) | 2.91 min
71 | NC(=O)CN1CC2CC(C1)c1cccc(=O)n1C2 (stereo not given) | 2.18 min
72 | COc1cc(C2OCC3C(c4cc(OC)c(OC5OC(CO)C(O)C(O)C5O)c(OC)c4)OCC23)cc(OC)c1OC1OC(CO)C(O)C(O)C1O (stereo not given) | 3.61 min
73 | CN(C)Cc1c[nH]c2ccccc12 | 3.06 min
74 | C=CC1C2=CCOC(=O)C2=COC1OC1OC(CO)C(O)C(O)C1O (stereo not given) | 3.44 min
75 | CCC=CCC=CC=CC(CCCCCCCC(=O)O)OO (stereo not given) | 6.77 min
